Data from patent publication US12577213B2 (NINGBO COMBIREG PHARMACEUTICAL TECHNOLOGY CO., LTD., priority 2020, dated 2026).
Read-outs that look alike come from different tables or passages of the source.

Tests used:
[1] = system: A549 (non-small cell lung cancer); test: NCI method SRB growth inhibition, A549; format: cell-based; conditions: Homo sapiens; A549, treated 48 hours, SRB stain
How it was run: (§1)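 Cells were exposed to compound for 48 h, with a parallel plate fixed at the time of dosing (Tz) and a vehicle control (C). SRB staining was read at OD 515 nm. GI50 is the concentration at 50% growth relative to C−Tz, TGI is where Ti=Tz, and LC50 is −50% relative to Tz.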

[2] = system: 786-0 (renal cancer); test: NCI method SRB growth inhibition, 786-0; format: cell-based; conditions: Homo sapiens; 786-0, treated 48 hours, SRB stain
How it was run: as §1

[3] = system: HCT116 (colon cancer); test: NCI method SRB growth inhibition, HCT116; format: cell-based; conditions: Homo sapiens, HCT-116; HCT116, treated 48 hours, SRB stain
How it was run: as §1

[4] = system: K562 (leukemia); test: NCI method SRB growth inhibition, K562; format: cell-based; conditions: Homo sapiens; K562, treated 48 hours, SRB stain
How it was run: as §1

[5] = system: PC-3 (prostate cancer); test: NCI method SRB growth inhibition, PC-3; format: cell-based; conditions: Homo sapiens; PC-3, treated 48 hours, SRB stain
How it was run: as §1

[6] = system: LOX-IMVI (melanoma); test: NCI method SRB growth inhibition, LOX-IMVI; format: cell-based; conditions: Homo sapiens, treated 48 hours, SRB stain
How it was run: as §1

[7] = system: SF295 (central nervous system tumor); test: NCI method SRB growth inhibition, SF295; format: cell-based; conditions: Homo sapiens, SF-295; SF295, treated 48 hours, SRB stain
How it was run: as §1

[8] = system: OVCAR-3 (ovarian cancer); test: NCI method SRB growth inhibition, OVCAR-3; format: cell-based; conditions: Homo sapiens; OVCAR-3, treated 48 hours, SRB stain
How it was run: as §1

[9] = system: HS 578T (breast cancer); test: NCI method SRB growth inhibition, HS 578T; format: cell-based; conditions: Homo sapiens, HS578T, treated 48 hours, SRB stain
How it was run: as §1

[10] = Liver microsomes stability; format: in vitro ADME, human; conditions: for half-life at 1 μM: human, human liver microsomes
How it was run: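 Compound at 1 μM final incubated with 1 mg/mL human liver microsomes and 1 mM NADPH (no-NADPH control), sampled at 0, 5, 15, 30, 60 min. Remaining parent quantified by LC-MS/MS; T1/2 = 0.693/k.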

[11] = Metabolic stability in vivo (plasma half-life after IV); conditions: intravenously at 1 mg/kg, male BALB/c nude mice; for half-life: mouse, plasma, iv, read-out: T½ of (IV in nude mice) (converted)
Method: The intravenous injection group of the embodiment compound was prepared with the mixed solvent of DMA:PEG400:30% SBECD=5:25:70 to form a 0.2 mg/mL of solution, and administered intravenously at 1 mg/kg of weight; and the oral preparation group was prepared with 0.5% MC to form a 1 mg/mL of solution, and administered by oral gavage at 10 mg/kg weight.
• Male BALB/c nude mice, 4-5 weeks old, purchased from Shanghai SLAC. 3. Experiment Method: 3.1 Instruments: • Liquid chromatography system: Shimadzu liquid chromatography system Shimadzu LC-30AD • MS/MS system: Applied Biosystems API5500 • Data collection: Analyst Software 1.5.2 3.2 Chromatographic Conditions Chromatographic Column • Analytical column: Kinetex 2.6u C18 100 A column (3.0 mm×30 mm) • Mobile phase: A: 10 mM NH4OAc (0.1% FA); B: Acetonitrile with 0.1% […] • Flow rate: 1.0 mL/min
Ion source was an electron spray ionization (ESI source) with negative ion detection; spray voltage source was 5500 V; ion source gas 1 (N2) was 50 psi; ion source gas 2 (N2) was 50 psi; air curtain gas (N2) was 30 psi. Scanning mode was multiple reaction monitoring (MRM); scanning time was 80 ms; collision gas pressure was 10 psi;
Grouping experiment, with three animals in each group, starting from now on, administration was started according to the weight of the animals. Blood was collected according to 5 min, 15 min, 30 min, 1 h, 2 h, 4 h, 8 h and 24 h after administration.
To 25.0 μL of plasma, 25.0 μL of internal standard solution (Tolbutamide (250 ng/mL) in acetonitrile), 25.0 μL of acetonitrile and 100 μL of acetonitrile were added, and the mixture was vortexed for 1 min, and centrifuged for 5 min (14000 rpm). 120 μL of the resulting supernatant was added with 80.0 μL of water (containing 1% formic acid) and mixed well, then analyzed by LC/MS/MS.

[12] = system: breast cancer cell line SUM159 sphere; test: Breast cancer stem cell sphere formation; format: cell-based, human; conditions: 50 nM; for formation of the sphere after cell passage: 5 days of drug treatment, then passage
Method: The inhibitory effects of embodiment compounds 5, 7, 11, 13, 14, 20 and 21 on the formation of breast cancer cell line SUM159 sphere are described as follows.
The breast cancer cell line SUM159 sphere was cultured with serum-free medium in an ultra-low adsorption plate, the basal medium was DMEM/F12 (without phenol red), and B27 (without vitamin A) (1×), EGF (20 ng/ml), bFGF (20 ng/ml) and insulin (insulin, 5 ug/ml) were added.
An equal number (4000) of SUM159 cells per well were inoculated into an ultra-low adsorption 24 plate, and the sphere was photographed after 5 days of culture, replaced with fresh medium, and treated with drugs at certain concentrations, respectively. Compounds 5, 7, 11, 13, 14, 20 and 21 were evaluated in this experiment at 50 nM, respectively. The effect of the drug on the sphere phenotype could be observed after about 3 days of drug treatment. The sphere was photographed again after 5 days of drug treatment, and then the sphere was passaged. The sphere was photographed again after 7 days of passage.
The differences of the photographs taken in three different stages were counted and compared, and the killing effect of the tested compounds on SUM159 sphere was evaluated through the differences of sphere formation after passage, thus reflecting the inhibitory effects of different compounds on breast cancer stem cells.

[13] = 1 μM compound, 1 mg/mL human liver microsomes, 1 mM NADPH
[14] = 1 μM compound, 1 mg/mL human liver microsomes, 1 mM NADPH, read-out: T½ of HLM
[15] = as repeated in Table 4, read-out: T½ of HLM (in vitro)

Row | SMILES | GI50 [1] | GI50 [2] | GI50 [3] | GI50 [4] | GI50 [5] | GI50 [6] | GI50 [7] | GI50 [8] | GI50 [9] | microsomal CLint at 1 μM [10, 13] | half-life at 1 μM [10, 14] | half-life at 1 μM [10, 15] | half-life [11] | T½ of (IV in nude mice) [11] | killing effect on SUM159 sphere [12] | formation of the sphere after cell passage [12]
1 | [2H]C([2H])([2H])C([2H])([2H])N(C(=O)C[C@H]1C(=O)Nc2cc(NC(=O)c3cc(OC)c(OC)c(OC)c3Cl)c(Oc3cc(C)cc(C)c3)cc2C(=O)N1C)C([2H])([2H])C([2H])([2H])[2H] [Compound 12, (S)-2-chloro-N-[3-[2-[bis(pentadeuteroethyl)amino]-2-oxoethyl]-7-(3,5-dimethylphenoxy)-4-methyl-2,5-dioxo-2,3,4,5-tetrahydro-1H-benzo[e][1,4]diazepin-8-yl]-3,4,5-trimethoxybenzamide] | < 5 nM | 9.9 nM | < 5 nM | < 5 nM | 5.4 nM | < 5 nM | 10.8 nM | 12.6 nM | 13.3 nM | 30.7 µL/min/mg | 22.6 min | 22.6 min | 34 min |  |  | 
2 | CCN(CC)C(=O)C[C@H]1C(=O)Nc2cc(NC(=O)c3cc(OC)c(OC)c(OC)c3Br)c(Oc3cc(C)cc(C)c3)cc2C(=O)N1C [a, reference compound] |  |  |  |  |  |  |  |  |  | 63.1 µL/min/mg | 11 min | 11 min |  | 31.9 min |  | 
3 | [2H]C([2H])([2H])C([2H])([2H])N(C(=O)C[C@@H]1NC(=O)c2cc(Oc3cc(C)cc(C)c3)c(NC(=O)c3cc(OC)c(OC)c(OC)c3Cl)cc2NC1=O)C([2H])([2H])C([2H])([2H])[2H] [Compound 8, (S)-2-chloro-N-[3-[2-[bis(pentadeuteroethyl)amino]-2-oxoethyl]-7-(3,5-dimethylphenoxy)-2,5-dioxo-2,3,4,5-tetrahydro-1H-benzo[e][1,4]diazepin-8-yl]-3,4,5-trimethoxybenzamide] | 15.3 nM | 13.9 nM | < 5 nM | < 5 nM | 9.7 nM | < 5 nM | 10.3 nM | 5 nM | 13.3 nM | 13.7 µL/min/mg | 50.6 min | 50.6 min | 38 min |  |  | 
4 | [2H]C([2H])([2H])Oc1cc(C(=O)Nc2cc3c(cc2Oc2cc(C)cc(C)c2)C(=O)N(C)[C@@H](CC(=O)N(C([2H])([2H])[2H])C([2H])([2H])[2H])C(=O)N3)c(Br)c(OC([2H])([2H])[2H])c1OC([2H])([2H])[2H] [Compound 14, (S)-2-bromo-N-[3-[2-[bis(trideuteromethyl)amino]-2-oxoethyl]-7-(3,5-dimethylphenoxy)-4-methyl-2,5-dioxo-2,3,4,5-tetrahydro-1H-benzo[e][1,4]diazepin-8-yl]-3,4,5-tris(trideuteromethoxy)benzamide] | < 5 nM | 5 nM | < 5 nM | < 5 nM | < 5 nM | < 5 nM | < 5 nM | < 5 nM |  | 11.3 µL/min/mg | 61.3 min |  |  |  | strong killing effect | significantly reduced
5 | [2H]C([2H])([2H])Oc1cc(C(=O)Nc2cc3c(cc2Oc2cc(C)cc(C)c2)C(=O)N(C)[C@@H](CC(=O)N(C([2H])([2H])C([2H])([2H])[2H])C([2H])([2H])C([2H])([2H])[2H])C(=O)N3)c(Br)c(OC([2H])([2H])[2H])c1OC([2H])([2H])[2H] [Compound 13, (S)-2-bromo-N-[3-[2-[bis(pentadeuteroethyl)amino]-2-oxoethyl]-7-(3,5-dimethylphenoxy)-4-methyl-2,5-dioxo-2,3,4,5-tetrahydro-1H-benzo[e][1,4]diazepin-8-yl]-3,4,5-tris(trideuteromethoxy)benzamide] | < 5 nM | 11.5 nM | < 5 nM | < 5 nM | < 5 nM | < 5 nM | 7.5 nM | < 5 nM | < 5 nM | 14.8 µL/min/mg | 46.8 min |  |  |  | strong killing effect | significantly reduced
6 | [2H]C([2H])([2H])C([2H])([2H])N(C(=O)C[C@@H]1NC(=O)c2cc(Oc3cc(C)cc(C)c3)c(NC(=O)c3cc(OC)c(OC)c(OC)c3Br)cc2NC1=O)C([2H])([2H])C([2H])([2H])[2H] [Compound 7, (S)-2-bromo-N-[3-[2-[bis(pentadeuteroethyl)amino]-2-oxoethyl]-7-(3,5-dimethylphenoxy)-2,5-dioxo-2,3,4,5-tetrahydro-1H-benzo[e][1,4]diazepin-8-yl]-3,4,5-trimethoxybenzamide] | < 5 nM | 6.5 nM | < 5 nM |  | < 5 nM | < 5 nM | < 5 nM | < 5 nM | 8.2 nM | 13.9 µL/min/mg | 49.9 min |  |  |  | strong killing effect | significantly reduced
7 | [2H]C([2H])([2H])C([2H])([2H])N(C(=O)C[C@H]1C(=O)Nc2cc(NC(=O)c3cc(OC)c(OC)c(OC)c3Br)c(Oc3cc(C)cc(C)c3)cc2C(=O)N1C)C([2H])([2H])C([2H])([2H])[2H] [Compound 11, (S)-2-bromo-N-[3-[2-[bis(pentadeuteroethyl)amino]-2-oxoethyl]-7-(3,5-dimethylphenoxy)-4-methyl-2,5-dioxo-2,3,4,5-tetrahydro-1H-benzo[e][1,4]diazepin-8-yl]-3,4,5-trimethoxybenzamide] | < 5 nM | 10.4 nM | 15.7 nM | < 5 nM | < 5 nM | < 5 nM | 10.9 nM | < 5 nM | < 5 nM | 28.2 µL/min/mg | 24.6 min |  |  |  | strong killing effect | significantly reduced
8 | COc1cc(C(=O)Nc2cc3c(cc2Oc2cc(C)cc(C)c2)C(=O)N[C@@H](CC(=O)N(C)C)C(=O)N3)c(Br)c(OC)c1OC [d, reference compound] |  |  |  |  |  |  |  |  |  |  |  | 100 min | 46.6 min |  |  | 
